Experimental data reported in PubChem BioAssay (NCI).
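Growth conditions: 96-well plates. Treatment: test compound, 48 hours, 5 concentrations. Analysis: linear interpolation between bracketing concentrations; unreached endpoints set to highest concentration. At the GI50, growth is halved. At the TGI there is no net growth.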

What was measured:
Assay in all cases: NCI anticancer screen, dose series, 48 h
[1] = system: ACHN renal
[2] = system: SK-OV-3 ovarian
[3] = system: OVCAR-8 ovarian
[4] = system: COLO 205 colon
[5] = system: OVCAR-4 ovarian
[6] = system: SNB-19 CNS
[7] = system: EKVX NSCLC
[8] = system: HOP-62 NSCLC
[9] = system: KM12 colon
[10] = system: U251 CNS
[11] = system: NCI-H23 lung
[12] = system: SK-MEL-28 melanoma
[13] = system: CCRF-CEM leukemia
[14] = system: UACC-257 melanoma
[15] = system: SN12C renal
[16] = system: A549 NSCLC

SMILES | TGI [1] | GI50 [2] | TGI [2] | TGI [3] | TGI [4] | TGI [5] | GI50 [6] | TGI [6] | TGI [7] | TGI [8] | TGI [9] | TGI [10] | GI50 [11] | TGI [11] | TGI [12] | TGI [13] | TGI [14] | TGI [15] | TGI [16]
CCCCCC(=O)N[C@@H](c1ccco1)[C@@H](O)C(=O)O[C@H]1C[C@@]2(O)[C@@H](OC(=O)c3ccccc3)[C@@H]3[C@]4(OC(C)=O)CO[C@@H]4C[C@H](O)[C@@]3(C)C(=O)[C@H](OC(C)=O)C(=C1C)C2(C)C | > 25 µM | 0.00163 µM | > 25 µM | > 25 µM | 0.00015 µM | > 25 µM | 0.00055 µM | > 25 µM | > 25 µM | > 25 µM | > 25 µM | > 25 µM | 0.000239 µM | > 25 µM | – | – | – | – | –
O=C1C(Cl)N(c2c(Cl)cccc2Cl)C1c1c[nH]c2ccccc12 (centres undefined) | – | – | > 100 µM | > 100 µM | > 100 µM | > 100 µM | – | > 100 µM | > 100 µM | > 100 µM | > 100 µM | > 100 µM | – | > 100 µM | > 100 µM | > 100 µM | > 100 µM | > 100 µM | > 100 µM
O=[N+]([O-])C(=C/c1ccccc1)/C(=C\c1ccccc1)[N+](=O)[O-] | 30.6 µM | – | 48.2 µM | 47.1 µM | 40 µM | 38.1 µM | – | 33.4 µM | 34 µM | 40 µM | 29 µM | 29 µM | – | 31.1 µM | 31.2 µM | 7.69 µM | 32.1 µM | 49.4 µM | 78.8 µM
CCOC(=O)Cc1cc(OC)c(OC)cc1/C(Cl)=C(\CO)c1ccc(OC)c(OC)c1 | > 100 µM | – | > 100 µM | > 100 µM | > 100 µM | > 100 µM | – | > 100 µM | > 100 µM | – | – | > 100 µM | – | > 100 µM | > 100 µM | > 100 µM | > 100 µM | > 100 µM | > 100 µM
